Data from ChEMBL document CHEMBL4396913, “Synthesis and biological evaluation of hybrid quinolone-based quaternary ammonium antibacterial agents” (Eur J Med Chem, 2019).
Converted amounts (≈) assume the structure as drawn.

How the values were obtained:
[1] = test system: Serratia marcescens; assay: Antibacterial activity against Serratia marcescens ATCC 12795 cultured in MH medium assessed as reduction in bacterial growth incubated for 48 hrs by microbroth dilution method; type: functional; conditions: ATCC 12795, 48 h
[2] = test system: Bacillus spizizenii; assay: Antibacterial activity against Bacillus subtilis ATCC 6633 cultured in MH medium assessed as reduction in bacterial growth incubated for 48 hrs by microbroth dilution method; type: functional; conditions: ATCC 6633, 48 h
[3] = test system: Staphylococcus aureus; assay: Antibacterial activity against methicillin resistant Staphylococcus aureus 6347 cultured in MH medium assessed as reduction in bacterial growth incubated for 48 hrs by microbroth dilution method; type: functional; conditions: Staphylococcus aureus, 6347, 48 h
[4] = test system: Staphylococcus epidermidis; assay: Antibacterial activity against Staphylococcus epidermidis ATCC 14990 cultured in MH medium assessed as reduction in bacterial growth incubated for 48 hrs by microbroth dilution method; type: functional; conditions: ATCC 14990, 48 h
[5] = test system: Staphylococcus aureus; assay: Biofilm degradation activity against Staphylococcus aureus ATCC 6538 assessed as biofilm formation at 2 times antibacterial MIC incubated for 24 hrs compound added post-biofilm formation by total biomass crystal violet staining-based method; type: functional
[6] = test system: Staphylococcus aureus; assay: Biofilm degradation activity against Staphylococcus aureus ATCC 6538 assessed as biofilm formation at 4 times antibacterial MIC incubated for 24 hrs compound added post-biofilm formation by total biomass crystal violet staining-based method; type: functional
[7] = test system: Bacillus spizizenii; assay: Bactericidal activity against Bacillus subtilis ATCC 6633 cultured in MH medium assessed as reduction in bacterial survival incubated for 48 hrs by microbroth dilution method; type: functional; conditions: ATCC 6633, 48 h
[8] = test system: Pseudomonas aeruginosa; assay: Antibacterial activity against Pseudomonas aeruginosa ATCC 9027 cultured in MH medium assessed as reduction in bacterial growth incubated for 48 hrs by microbroth dilution method; type: functional; conditions: ATCC 9027, 48 h
[9] = test system: Staphylococcus aureus; assay: Antibacterial activity against Staphylococcus aureus ATCC 6538 cultured in MH medium assessed as reduction in bacterial growth incubated for 48 hrs by microbroth dilution method; type: functional; conditions: ATCC 6538, 48 h
[10] = test system: Pseudomonas aeruginosa; assay: Antibiofilm activity against Pseudomonas aeruginosa ATCC 9027 assessed as biofilm formation at 0.5 times antibacterial MIC incubated for 24 hrs compound added prior to bacterial biofilm formation by total biomass crystal violet staining-based method relative to control; type: functional
[11] = test system: Proteus vulgaris; assay: Antibacterial activity against Proteus vulgaris NCTC 4635 cultured in MH medium assessed as reduction in bacterial growth incubated for 48 hrs by microbroth dilution method; type: functional; conditions: NCTC 4635, 48 h
[12] = test system: Staphylococcus aureus; assay: Antibiofilm activity against Staphylococcus aureus ATCC 6538 assessed as biofilm formation at antibacterial MIC incubated for 24 hrs compound added prior to bacterial biofilm formation by total biomass crystal violet staining-based method relative to control; type: functional
[13] = test system: Staphylococcus epidermidis; assay: Antibacterial activity against methicillin resistant Staphylococcus epidermidis ATCC 13199 cultured in MH medium assessed as reduction in bacterial growth incubated for 48 hrs by microbroth dilution method; type: functional; conditions: ATCC 13199, 48 h
[14] = test system: Escherichia coli; assay: Antibacterial activity against Escherichia coli ATCC 8739 cultured in MH medium assessed as reduction in bacterial growth incubated for 48 hrs by microbroth dilution method; type: functional; conditions: ATCC 8739, 48 h
[15] = test system: Proteus vulgaris; assay: Bactericidal activity against Proteus vulgaris NCTC 4635 cultured in MH medium assessed as reduction in bacterial survival incubated for 48 hrs by microbroth dilution method; type: functional; conditions: NCTC 4635, 48 h
[16] = test system: Pseudomonas aeruginosa; assay: Biofilm degradation activity against Pseudomonas aeruginosa ATCC 9027 assessed as biofilm formation at 2 times antibacterial MIC incubated for 24 hrs compound added post-biofilm formation by total biomass crystal violet staining-based method; type: functional
[17] = test system: Staphylococcus aureus; assay: Antibacterial activity against methicillin resistant Staphylococcus aureus N315 cultured in MH medium assessed as reduction in bacterial growth incubated for 48 hrs by microbroth dilution method; type: functional; conditions: N315, 48 h
[18] = test system: Staphylococcus aureus; assay: Antibiofilm activity against Staphylococcus aureus ATCC 6538 assessed as biofilm formation at 0.5 times antibacterial MIC incubated for 24 hrs compound added prior to bacterial biofilm formation by total biomass crystal violet staining-based method relative to control; type: functional
[19] = test system: Pseudomonas aeruginosa; assay: Biofilm degradation activity against Pseudomonas aeruginosa ATCC 9027 assessed as biofilm formation at antibacterial MIC incubated for 24 hrs compound added post-biofilm formation by total biomass crystal violet staining-based method; type: functional
[20] = test system: Streptococcus pneumoniae; assay: Antibacterial activity against Streptococcus pneumoniae cultured in MH medium assessed as reduction in bacterial growth incubated for 48 hrs by microbroth dilution method; type: functional
[21] = test system: Staphylococcus aureus; assay: Bactericidal activity against Staphylococcus aureus ATCC 6538 cultured in MH medium assessed as reduction in bacterial survival incubated for 48 hrs by microbroth dilution method; type: functional; conditions: ATCC 6538, 48 h
[22] = test system: Serratia marcescens; assay: Bactericidal activity against Serratia marcescens ATCC 12795 cultured in MH medium assessed as reduction in bacterial survival incubated for 48 hrs by microbroth dilution method; type: functional; conditions: ATCC 12795, 48 h
[23] = Lipophilicity, log k of the compound at 100 ug/ml by micellar electrokinetic chromatography; type: physicochemical
[24] = test system: Enterococcus hirae; assay: Antibacterial activity against Enterococcus hirae ATCC 1052 cultured in BHI medium assessed as reduction in bacterial growth incubated for 48 hrs by microbroth dilution method; type: functional; conditions: ATCC 1052, 48 h
[25] = test system: Staphylococcus epidermidis; assay: Bactericidal activity against Staphylococcus epidermidis ATCC 14990 cultured in MH medium assessed as reduction in bacterial survival incubated for 48 hrs by microbroth dilution method; type: functional; conditions: ATCC 14990, 48 h
[26] = test system: Staphylococcus aureus; assay: Bactericidal activity against methicillin resistant Staphylococcus aureus N315 cultured in MH medium assessed as reduction in bacterial survival incubated for 48 hrs by microbroth dilution method; type: functional; conditions: N315, 48 h
[27] = test system: Staphylococcus aureus; assay: Biofilm degradation activity against Staphylococcus aureus ATCC 6538 assessed as biofilm formation at antibacterial MIC incubated for 24 hrs compound added post-biofilm formation by total biomass crystal violet staining-based method; type: functional
[28] = test system: Pseudomonas aeruginosa; assay: Biofilm degradation activity against Pseudomonas aeruginosa ATCC 9027 assessed as biofilm formation at 4 times antibacterial MIC incubated for 24 hrs compound added post-biofilm formation by total biomass crystal violet staining-based method; type: functional
[29] = test system: Pseudomonas aeruginosa; assay: Bactericidal activity against Pseudomonas aeruginosa ATCC 9027 cultured in MH medium assessed as reduction in bacterial survival incubated for 48 hrs by microbroth dilution method; type: functional; conditions: ATCC 9027, 48 h
[30] = test system: Staphylococcus epidermidis; assay: Bactericidal activity against methicillin resistant Staphylococcus epidermidis ATCC 13199 cultured in MH medium assessed as reduction in bacterial survival incubated for 48 hrs by microbroth dilution method; type: functional; conditions: ATCC 13199, 48 h
[31] = test system: Escherichia coli; assay: Bactericidal activity against Escherichia coli ATCC 8739 cultured in MH medium assessed as reduction in bacterial survival incubated for 48 hrs by microbroth dilution method; type: functional; conditions: ATCC 8739, 48 h
[32] = test system: Streptococcus pneumoniae; assay: Bactericidal activity against Streptococcus pneumoniae cultured in MH medium assessed as reduction in bacterial survival incubated for 48 hrs by microbroth dilution method; type: functional
[33] = test system: Enterococcus hirae; assay: Bactericidal activity against Enterococcus hirae ATCC 1052 cultured in BHI medium assessed as reduction in bacterial survival incubated for 48 hrs by microbroth dilution method; type: functional; conditions: ATCC 1052, 48 h
[34] = test system: Pseudomonas aeruginosa; assay: Antibiofilm activity against Pseudomonas aeruginosa ATCC 9027 assessed as biofilm formation at antibacterial MIC incubated for 24 hrs compound added prior to bacterial biofilm formation by total biomass crystal violet staining-based method relative to control; type: functional
[35] = test system: Staphylococcus aureus; assay: Bactericidal activity against methicillin resistant Staphylococcus aureus 6347 cultured in MH medium assessed as reduction in bacterial survival incubated for 48 hrs by microbroth dilution method; type: functional; conditions: Staphylococcus aureus, 6347, 48 h
[36] = test system: Escherichia coli; assay: Antibacterial activity against […] Escherichia coli ATCC 8739 assessed as reduction in bacterial growth incubated for 48 hrs in presence of 50 ug/ml […], PAbetaN by microbroth dilution method; type: functional; conditions: ATCC 8739, 48 h
[37] = test system: HEK293; assay: Cytotoxicity against human HEK293 cells assessed as cell viability upto 20 uM incubated for 72 hrs by MTT assay; type: cell-based; conditions: hek293, 72 h
[38] = test system: Escherichia coli; assay: Bactericidal activity against […] Escherichia coli ATCC 8739 assessed as reduction in bacterial survival incubated for 48 hrs in presence of 50 ug/ml […], PAbetaN by microbroth dilution method; type: functional; conditions: ATCC 8739, 48 h
[39] = test system: Staphylococcus epidermidis; assay: Ratio of gatifloxacin resistance index to compound resistance index for methicillin resistant Staphylococcus epidermidis ATCC 13199 by microbroth dilution method; type: functional
[40] = test system: HEK293; assay: Cytotoxicity against human HEK293 cells assessed as changes in cell morphology upto 20 uM incubated for 72 hrs by MTT assay; type: cell-based; conditions: hek293, 72 h
[41] = test system: Proteus vulgaris; assay: Resistance index, ratio of MIC for Proteus vulgaris NCTC 4635 measured after 15 passages to MIC for Proteus vulgaris NCTC 4635 measured after 48 hrs incubation by microbroth dilution method; type: functional
[42] = test system: Proteus vulgaris; assay: Antibacterial activity against Proteus vulgaris NCTC 4635 measured after 15 passages by microbroth dilution method; type: functional

SMILES	MIC [1] [µg/mL]	MIC [2] [µg/mL]	MIC [3] [µg/mL]	MIC [4] [µg/mL]	MBC [7] [µg/mL]	MIC [8] [µg/mL]	MIC [9] [µg/mL]	MIC [11] [µg/mL]	MIC [13] [µg/mL]	MIC [14] [µg/mL]	MBC [15] [µg/mL]	MIC [17] [µg/mL]	MIC [20] [µg/mL]	MBC [21] [µg/mL]	MBC [22] [µg/mL]	log K [23]	MIC [24] [µg/mL]	MBC [25] [µg/mL]	MBC [26] [µg/mL]	MBC [29] [µg/mL]	further results
CCn1cc(C(=O)O)c(=O)c2cc(F)c(N3CCNC(C)C3)c(F)c21 (stereo unspecified) [LOMEFLOXACIN]	0.5 (≈ 1.42 µM)	0.125 (≈ 0.356 µM)	0.5 (≈ 1.42 µM)	1 (≈ 2.85 µM)	0.125 (≈ 0.356 µM)	1 (≈ 2.85 µM)	1 (≈ 2.85 µM)	0.008 (≈ 0.0228 µM)	0.25 (≈ 0.712 µM)	0.063 (≈ 0.179 µM)	0.008 (≈ 0.0228 µM)	0.5 (≈ 1.42 µM)	16 (≈ 45.5 µM)	1 (≈ 2.85 µM)	0.5 (≈ 1.42 µM)	0.0766	128 (≈ 364 µM)	2 (≈ 5.69 µM)	1 (≈ 2.85 µM)	1 (≈ 2.85 µM)	Activity [5]: 12%; Activity [6]: 6%; Activity [10]: 6%; Activity [12]: 9%; Activity [16]: 36%; Activity [18]: 63%; Activity [19]: 40%; Activity [27]: 58%; Activity [28]: 34%; MBC [30]: 0.25 µg/mL (≈ 0.712 µM); MBC [31]: 0.125 µg/mL (≈ 0.356 µM); MBC [32]: > 512 µg/mL; MBC [33]: 128 µg/mL (≈ 364 µM); Activity [34]: 2%; MBC [35]: 1 µg/mL (≈ 2.85 µM)
COc1c(N2CC[N+]3(CN4C(C)=CC(C)=C(C(=O)O)C4=N3)C(C)C2)c(F)cc2c(=O)c(C(=O)O)cn(C3CC3)c12.[Cl-] (stereo unspecified)	32	2	8	8	2	32	8	0.5	4	2	0.5	8	128	16	32	-0.408	> 512	16	8	256	MIC [36]: 1 µg/mL; Activity [37]: Non-Toxic; MBC [38]: 2 µg/mL; Ratio [39]: 2; Activity [40]: Non-Toxic; Ratio [41]: 4; MIC [42]: 2 µg/mL; MBC [30]: 8 µg/mL; MBC [31]: 2 µg/mL; MBC [32]: 256 µg/mL; MBC [35]: 16 µg/mL
